The experiment relates to CD22-fc. Nature of the experiment: Analysis of CD22 ligand on surfaces of NK-92 cells (CD22-fc binding, flow cytometry and confocal). It counts as cell-based. To be noted: NK-92 cells incubated with the sialic acid derivative; FIGS. 7A and 7B. The method, then: Culturing ATCC (American Type Culture Collection)-derived NK-92 (ATCC® CRL2407™) cells (also known as NK-92 cell lines) on a fourth alpha-MEM growth medium (comprising 12.5% (v/v) newborn bovine serum, 12.5% (v/v) horse serum, 100 U/ml recombinant IL-2) in an incubator with 5% (v/v) CO2 atmosphere at 37° C., then replacing the fourth alpha-MEM growth medium with a fifth alpha-MEM growth medium (comprising 2 mMPB-sia), continuing to culture for 48 hours, and washing for three times to obtain MPB-sia modified NK-92 cells, which is referred to as MsNK-92 cells.
Washing MPB-sia or BPC-sia modified NK-92 cells with PBS buffer for three times, adding 100 μL, PBS, adding 1 μg CD22-fc to obtain a first mixture, then culturing the first mixture on ice for 30 minutes, washing three times with PBS buffer, then adding anti-CD22-PE to obtain a second mixture, culturing the second mixture on ice for 30 minutes, washing three times, then collecting cells, quantifying the extent of CD22 binding by flow cytometry analysis, and imaging by confocal microscopy.
Increasing the concentration of MPB-sia enhanced the levels of CD22 ligand expression on cell surfaces reaching a maximum at 4 mM of MPB-sia at 24 hours (FIG. 8A). […] Next, the persistence of CD22 ligands on engineered NK-92 cells was analyzed. […]
(In general: In flow cytometry, cells or beads pass a laser one at a time.)

In the case of `CC(=O)N[C@H]1[C@H]([C@H](O)[C@H](O)CO)OC(O)(C(=O)O)C[C@@H]1O` (stereo partly shown) [sialic acid (sia), sialic acid (N-acetylneuraminic acid)], the “CD22 binding to NK-92 cells (flow cytometry)” value is recorded as “little binding with CD22 over the background”.

Values taken from patent US11033562B2, “Carbohydrate derivatives used for surface modification of immune cells, use thereof and method thereof” (Xiamen Nuokangde Biological Technology Co., Ltd., priority 2018, dated 2021).
